# Assay results as given in patent publication US9181255B2, “Fused heteroaromatic pyrrolidinones as SYK inhibitors” (Takeda Pharmaceutical Company Limited, priority 2009, dated 2015).
# Target: SYK (Homo sapiens, UniProt P43405)
# Experiment: SYK inhibition assay: SYK-mediated phosphorylation of FAM-labeled substrate (Caliper microfluidic)
# Format: biochemical
# Details: SYK kinase domain (residues 356-635); 5FAM-KKKKEEIYFFFG-NH2 substrate; ATP; RT 60 min; pIC50 = -log(IC50), IC50 molar
row,Compound,SYK Inhibition (pIC50)
1,"N[C@H]1COCC[C@H]1Nc1nc(-c2cnn(C(F)F)c2)c2c(c1F)CNC2=O [Example 93, 6-((3R,4R)-3-Aminotetrahydro-2H-pyran-4-ylamino)-4-(1-(difluoromethyl)-1H-pyrazol-4-yl)-7-fluoro-1H-pyrrolo[3,4-c]pyridin-3(2H)-one]",8.0

# Same assay, conditions: read-out: SYK Inhibition (pIC50) (converted)
row,Compound,IC50
1,"CC(C)C[C@@H](Nc1nc(-c2cnn(C3CC3)c2)c2c(c1F)CNC2=O)C(N)=O [Example 72, (R)-2-(4-(1-Cyclopropyl-1H-pyrazol-4-yl)-7-fluoro-3-oxo-2,3-dihydro-1H-pyrrolo[3,4-c]pyridin-6-ylamino)-4-methylpentanamide]",31.6 nM
2,"CC(C)C[C@@H](Nc1nc(-c2coc3ccccc23)c2c(c1F)CNC2=O)C(N)=O [Example 73, (R)-2-(4-(Benzofuran-3-yl)-7-fluoro-3-oxo-2,3-dihydro-1H-pyrrolo[3,4-c]pyridin-6-ylamino)-4-methylpentanamide]",7.94 nM
3,"CC(C)C[C@@H](Nc1nc(-c2cnn3ccccc23)c2c(c1F)CNC2=O)C(N)=O [Example 74, (R)-2-(7-Fluoro-3-oxo-4-(pyrazolo[1,5-a]pyridin-3-yl)-2,3-dihydro-1H-pyrrolo[3,4-c]pyridin-6-ylamino)-4-methylpentanamide]",5.01 nM
4,"COC[C@H](N)CNc1cc2c(c(Nc3cccc(C)c3)n1)C(=O)NC2 [Example 77, (R)-6-(2-Amino-3-methoxypropylamino)-4-(m-tolylamino)-1H-pyrrolo[3,4-c]pyridin-3(2H)-one]",31.6 nM
5,"COC[C@H](N)CNc1nc(Nc2cccc(C)c2)c2c(c1C#N)CNC2=O [Example 78, (R)-6-(2-Amino-3-methoxypropylamino)-3-oxo-4-(m-tolylamino)-2,3-dihydro-1H-pyrrolo[3,4-c]pyridine-7-carbonitrile]",3.98 nM
6,"COC[C@H](N)CNc1nc(Nc2cccc(C)c2)c2c(c1F)CNC2=O [Example 79, (R)-6-(2-Amino-3-methoxypropylamino)-7-fluoro-4-(m-tolylamino)-1H-pyrrolo[3,4-c]pyridin-3(2H)-one]",20 nM
7,"C=CC(=O)c1c(N[C@@H]2CCCC[C@@H]2N)nc(Nc2cccc(C)c2)c2c1CNC2=O [Example 80, 7-Acryloyl-6-((1R,2S)-2-aminocyclohexylamino)-4-(m-tolylamino)-1H-pyrrolo[3,4-c]pyridin-3(2H)-one]",3160 nM
8,"Cc1cccc(Nc2nc(N[C@@H]3CCCC[C@@H]3N)c(I)c3c2C(=O)NC3)c1 [Example 81, 6-((1R,2S)-2-Aminocyclohexylamino)-7-iodo-4-(m-tolylamino)-1H-pyrrolo[3,4-c]pyridin-3(2H)-one]",3.16 nM
9,"Cc1cccc(Nc2nc(N[C@@H]3CCCC[C@@H]3N)c(-c3ccnn3C)c3c2C(=O)NC3)c1 [Example 84, 6-((1R,2S)-2-Aminocyclohexylamino)-7-(1-methyl-1H-pyrazol-5-yl)-4-(m-tolylamino)-1H-pyrrolo[3,4-c]pyridin-3(2H)-one]",20 nM
10,"Cc1cccc(Nc2nc(N[C@@H]3CCOC[C@@H]3N)cc3c2C(=O)NC3)c1 [Example 85, 6-((3R,4R)-3-Aminotetrahydro-2H-pyran-4-ylamino)-4-(m-tolylamino)-1H-pyrrolo[3,4-c]pyridin-3(2H)-one]",3.98 nM
11,"Cc1cccc(Nc2nc(N[C@H]3COCC[C@H]3N)cc3c2C(=O)NC3)c1 [Example 86, 6-((3R,4R)-4-Aminotetrahydro-2H-pyran-3-ylamino)-4-(m-tolylamino)-1H-pyrrolo[3,4-c]pyridin-3(2H)-one]",2510 nM
12,Cc1cccc(Nc2nc(N[C@@H]3CCCC[C@@H]3N)c(-c3ccccc3)c3c2C(=O)NC3)c1 [Example 87],63.1 nM
13,"Cc1cccc(Nc2nc(N[C@@H]3CCOC[C@@H]3N)c(F)c3c2C(=O)NC3)c1 [Example 89, 6-((3R,4R)-3-Aminotetrahydro-2H-pyran-4-ylamino)-7-fluoro-4-(m-tolylamino)-1H-pyrrolo[3,4-c]pyridin-3(2H)-one]",3.98 nM
14,"Cc1c(N[C@@H]2CCCC[C@@H]2N)nc(-c2cnn(C)c2)c2c1CNC2=O [Example 90, 6-((1R,2S)-2-Aminocyclohexylamino)-7-methyl-4-(1-methyl-1H-pyrazol-4-yl)-1H-pyrrolo[3,4-c]pyridin-3(2H)-one]",10 nM
15,"COC[C@H](N)CNc1cc2c(c(-c3cnn(C)c3)n1)C(=O)NC2 [Example 91, (R)-6-(2-Amino-3-methoxypropylamino)-4-(1-methyl-1H-pyrazol-4-yl)-1H-pyrrolo[3,4-c]pyridin-3(2H)-one]",251 nM
16,"N[C@H]1COCC[C@H]1Nc1nc(-c2cnn3ccccc23)c2c(c1F)CNC2=O [Example 92, 6-((3R,4R)-3-Aminotetrahydro-2H-pyran-4-ylamino)-7-fluoro-4-(pyrazolo[1,5-a]pyridin-3-yl)-1H-pyrrolo[3,4-c]pyridin-3(2H)-one]",12.6 nM
17,"N[C@H]1COCC[C@H]1Nc1nc(-c2coc3ccccc23)c2c(c1F)CNC2=O [Example 94, 6-((3R,4R)-3-Aminotetrahydro-2H-pyran-4-ylamino)-4-(benzofuran-3-yl)-7-fluoro-1H-pyrrolo[3,4-c]pyridin-3(2H)-one]",3.16 nM

row,Compound,IC50
1,"Cn1cc(-c2nc(N3CC[C@H](N)C3)c(F)c3c2C(=O)NC3)cn1 [Example 95, (S)-6-(3-Aminopyrrolidin-1-yl)-7-fluoro-4-(1-methyl-1H-pyrazol-4-yl)-1H-pyrrolo[3,4-c]pyridin-3(2H)-one]",3980 nM
2,"Cn1cc(-c2nc(N3CCC[C@H](N)C3)c(F)c3c2C(=O)NC3)cn1 [Example 96, (S)-6-(3-Aminopiperidin-1-yl)-7-fluoro-4-(1-methyl-1H-pyrazol-4-yl)-1H-pyrrolo[3,4-c]pyridin-3(2H)-one]",200 nM
3,"CC(C)n1cc(-c2nc(N[C@@H]3CCCC[C@@H]3N)c(F)c3c2C(=O)NC3)cn1 [Example 97, 6-((1R,2S)-2-Aminocyclohexylamino)-7-fluoro-4-(1-isopropyl-1H-pyrazol-4-yl)-1H-pyrrolo[3,4-c]pyridin-3(2H)-one]",158 nM
4,"Cn1cc(-c2nc(-c3cnn(C)c3)c3c(c2F)CNC3=O)cn1 [Example 98, 7-Fluoro-4,6-bis(1-methyl-1H-pyrazol-4-yl)-1H-pyrrolo[3,4-c]pyridin-3(2H)one]",2000 nM
5,"Cn1cc(-c2nc(N[C@@H]3CCCC[C@@H]3N)c(Br)c3c2C(=O)NC3)cn1 [Example 99, 6-((1R,2S)-2-Aminocyclohexylamino)-7-bromo-4-(1-methyl-1H-pyrazol-4-yl)-1H-pyrrolo[3,4-c]pyridin-3(2H)-one]",3.16 nM
6,"N[C@H]1CCCC[C@H]1Nc1nc2c(c(-c3cnn(-c4ccc(F)cc4)c3)n1)C(=O)NC2 [Example 100, 2-((1R,2S)-2-Aminocyclohexylamino)-4-(1-(4-fluorophenyl)-1H-pyrazol-4-yl)-6,7-dihydro-5H-pyrrolo[3,4-d]pyrimidin-5-one]",158 nM
7,"COC[C@H](N)CNc1nc(-c2cnn(C)c2)c2c(c1F)CNC2=O [Example 101, (R)-6-(2-Amino-3-methoxypropylamino)-7-fluoro-4-(1-methyl-1H-pyrazol-4-yl)-1H-pyrrolo[3,4-c]pyridin-3(2H)-one]",63.1 nM
8,"N[C@H]1COCC[C@H]1Nc1nc(-c2ccsc2)c2c(c1F)CNC2=O [Example 103, 6-((3R,4R)-3-Aminotetrahydro-2H-pyran-4-ylamino)-7-fluoro-4-(thiophen-3-yl)-1H-pyrrolo[3,4-c]pyridin-3(2H)-one]",126 nM
9,"Cc1csc(-c2nc(N[C@@H]3CCOC[C@@H]3N)c(F)c3c2C(=O)NC3)c1 [Example 104, 6-((3R,4R)-3-Aminotetrahydro-2H-pyran-4-ylamino)-7-fluoro-4-(4-methylthiophen-2-yl)-1H-pyrrolo[3,4-c]pyridin-3(2H)-one]",2 nM
10,"Cc1csc(-c2nc(N[C@@H]3CCCC[C@@H]3N)c(F)c3c2C(=O)NC3)c1 [Example 105, 6-((1R,2S)-2-Aminocyclohexylamino)-7-fluoro-4-(4-methylthiophen-2-yl)-1H-pyrrolo[3,4-c]pyridin-3(2H)-one]",1 nM
11,"N[C@H]1CCCC[C@H]1Nc1nc(-c2ccsc2)c2c(c1F)CNC2=O [Example 106, 6-((1R,2S)-2-Aminocyclohexylamino)-7-fluoro-4-(thiophen-3-yl)-1H-pyrrolo[3,4-c]pyridin-3(2H)-one]",2.51 nM
12,"CNC(=O)[C@@H](CC(C)C)Nc1nc(-c2cnn(C)c2)c2c(c1F)CNC2=O [Example 107, (R)-2-(7-Fluoro-4-(1-methyl-1H-pyrazol-4-yl)-3-oxo-2,3-dihydro-1H-pyrrolo[3,4-c]pyridin-6-ylamino)-N,4-dimethylpentanamide]",501 nM
13,"Cc1ccc(-c2nc(N[C@@H]3CCCC[C@@H]3N)c(F)c3c2C(=O)NC3)s1 [Example 108, 6-((1R,2S)-2-Aminocyclohexylamino)-7-fluoro-4-(5-methylthiophen-2-yl)-1H-pyrrolo[3,4-c]pyridin-3(2H)-one]",2.51 nM
14,"Cc1csc(-c2nc(N[C@H](CC(C)C)C(N)=O)c(F)c3c2C(=O)NC3)c1 [Example 109, (R)-2-(7-Fluoro-4-(4-methylthiophen-2-yl)-3-oxo-2,3-dihydro-1H-pyrrolo[3,4-c]pyridin-6-ylamino)-4-methylpentanamide]",3.16 nM
15,"CC(C)C[C@@H](Nc1nc(-c2ccsc2)c2c(c1F)CNC2=O)C(N)=O [Example 110, (R)-2-(7-Fluoro-3-oxo-4-(thiophen-3-yl)-2,3-dihydro-1H-pyrrolo[3,4-c]pyridin-6-ylamino)-4-methylpentanamide]",50.1 nM
16,"Cc1ccc(-c2nc(N[C@H](CC(C)C)C(N)=O)c(F)c3c2C(=O)NC3)s1 [Example 111, (R)-2-(7-Fluoro-4-(5-methylthiophen-2-yl)-3-oxo-2,3-dihydro-1H-pyrrolo[3,4-c]pyridin-6-ylamino)-4-methylpentanamide]",7.94 nM
17,"Nc1ncc(-c2nc(N[C@@H]3CCCC[C@@H]3N)c(F)c3c2C(=O)NC3)s1 [Example 112, 6-((1R,2S)-2-Aminocyclohexylamino)-4-(2-aminothiazol-5-yl)-7-fluoro-1H-pyrrolo[3,4-c]pyridin-3(2H)-one]",2 nM
